Data: patent publication US20120100204A1, “TGF-Beta Stimulating Agent Compositions and Combinations” (TCP INNOVATIONS LTD, priority 2007, published 2012)

Tests used:
fibrin(ogen) = fibrin(ogen) deposition into the blood vessel wall, quantitative immunofluoresence
Source text: Adult male apoE-deficient mice, back-crossed onto a C57B16 background for at least five generations, were randomised into groups of eight animals at 12 weeks of age, such that each group had similar average body weight. […] The amount of food eaten and the body weight of each mouse was monitored daily for the first week, and once per week thereafter. After 12 weeks of treatment, the mice were sacrificed by CO2 asphyxiation, and heart & lung blocks were excised, embedded in Cryo-M-bed (Bright Instruments, UK) without fixation and snap frozen in liquid nitrogen.
Sections were then prepared from the aortic root according to the Paigen Strategy (a defined sequence of cutting sections which allow reproducible comparison between animals; see for example Grainger et al. (1995) Nature Med. 1:1067-72 and the references therein). 4 μm crysosections were cut using a motordriven cryotome (Bright Instruments) and collected onto poly-L-lysine coated glass microscope slides, then fixed in ice-cold acetone for 90 secs, allowed to air dry and stored at −20° C. until analysed.
The level of fibrin or fibrinogen deposited into the vessel wall was also estimated by quantitative immunofluoresence, using a method identical to that for TGF-beta1, except that the primary antibody was sheep anti-fibrin(ogen) (Chemicon; 2 μg/ml) and the secondary antibody was donkey anti-sheep IgG minimum cross-reactivity, FITC labelled (Jackson Immunoresearch), as previously described (Thromb Res. 2001 Apr. 1; 102(1):71-80).
Adult male apoE-deficient mice were treated, in groups of 8, with fish oil (Seven Seas, UK), aspirin or both agents simultaneously from 12 weeks of age until 24 weeks of age, exactly as described in Example 2.
The levels of TGF-beta1 and fibrin(ogen) in the vessel wall were determined by quantitative immunofluoresence, exactly as described in example 2.

TGF-beta1 protein = assay: total TGF-beta1 protein in conditioned medium, Quantikine ELISA; format: cell-based, human; conditions: 24 hrs or 72 hrs; any dose tested (Tamoxifen up to 33 μM, aspirin up to 100 μM)
Procedure: The cells were cultured (37° C.; 5% CO2) in DMEM+20% foetal calf serum (FCS), and subcultured every 5 days at 1:2 dilution, using 0.02% trypsin/EDTA (Gibco).
For the experiments, the cells were subcultured into 12-well cluster plates at 1×10^5 cells/cm^2, and allowed to grow for 24 hrs. […] The cells were then incubated for either 24 hrs or 72 hrs depending on the experiment. All treatment conditions were established in triplicate.
TGF-beta1 protein levels in the medium was measured using the Quantikine ELISA kit (R&D Systems) in accordance with the manufacturer's instructions, except that the medium was pre-activated by addition of an equal volume of 2.7M HCl 10M Urea, and then neutralised by addition of the same volume of 1M HEPES 2M NaOH. […] Note that TGF-beta proteins are well known to interact with many different matrix proteins and cell surface proteins, including proteoglycans, low affinity type III receptors, fibronectin and collagen, and consequently the amount of TGF-beta protein in the medium may not represent the total amount synthesised by the cells, and a negative result in the assay for TGF-beta protein may represent a false negative.

tgfb1 mRNA = tgfb1 mRNA level by quantitative PCR in human aortic vascular smooth muscle cells; format: cell-based; conditions: 24 hrs
Procedure: (1995) Cardiovasc. Res. 29:848-55). […] The cells were then incubated for either 24 hrs or 72 hrs depending on the experiment. All treatment conditions were established in triplicate. The level of mRNA for tgfb1, tgfb2 and tgfb3 were estimated by quantitative PCR. The media was removed and RNA was carefully prepared using the Ambion RNAqueous4PCR kit (Ambion#1914) in accordance with the manufacturer's instructions. The purity of the RNA and the quantity was assessed spectrophotometrically. […] This analysis results in both a gel-like image as well as electrophoretic data. Indications of RNA degradation are: (a) decreasing ratio of ribosomal bands (b) additional peaks bellow the ribosomal bands (c) Decrease in overall RNA signal (d) shift towards shorter fragments. All the mRNA samples used in the experiments presented here passed this RNA quality control step. Next, the RNA was converted to cDNA using the ABI High-Capacity cDNA Archive Kit, in accordance with manufacturer's instructions. […] Samples were vortexed to ensure thorough mixing. cDNA was aliquoted into ABI 384 well plates using a multi-channel pipette, 4.5 μl of sample into each well. Samples were assayed in triplicate (that is, nine determinations in total were made for each condition, being three separate assays on each of three replicate culture wells). The assay mix and Universal Master Mix were prepared and aliquoted across the 384 well plates 5.5 μl in each well, using a single channel pipette. The final composition of each reaction (10 μl) being: […] Universal Master Mix=5 μl; cDNA=4.5 μl. The plates were then heat sealed using Abgene clear seal strong plastic heat seals, and then cycled and scanned using the ABI 9700HT under the following conditions: 95° C. for 10 minutes to activate the AmpliTaq GOLD, then 40 cycles of: 95° C. for 15 sec (Denaturation), 60° C. for 60 […]). […] Quantitative PCR was performed using several primer/probe sets. […] We used both commercially available primer/probe sets (ABI Taqman pre-validated assays), using both available sets in the ABI database for tgfb1 and tgfb2, as well as the single available set for tgfb3. In addition, we used our own manual design probe/primer set for each of tgfb1, tgfb2 and tgfb3. For normalisation, we used TATA-binding protein (TBP) as the primary normalisation standard, with GAPDH as an alternative for confirmation, using ABI Taqman pre-validated probe/primer sets. […] Neither TBP nor GAPDH mRNA levels are affected by TGF-beta and are therefore equally suitable, however TBP was selected as the primary normalisation standard because the absolute level of mRNA in most cell types is similar to that of the TGF-beta isoforms, resulting in lower errors on calculating the ratio, and improving the power of the experiment. In all quantitative PCR experiments, several additional controls were included: firstly, a control for each sample is run with no reverse transcription to ensure the mRNA sample is not contaminated with genomic DNA (although the manual design probe/primer sets were all selected to cross an exon/exon boundary, ensuring no detectable amplicon is produced from genomic DNA templates). […] This control ensures that the results for the unknown samples are obtained in the linear range of the amplification process, and are therefore truly quantitative. Failure of either control led to the repeat of the entire experiment. Typically, the half maximal signal was obtained after 20-30 amplification cycles. […]

[1] = critical micelle concentration; format: physicochemical; conditions: in the presence of 20% foetal calf serum

CC(=O)Oc1ccccc1C(=O)O [Aspirin, acetylsalicylic acid]
effect on fibrin(ogen) deposition into the blood vessel wall (in words) (fibrin(ogen); mouse, in vivo): significantly reduced | effect on total TGF-beta1 protein levels in conditioned medium (TGF-beta1 protein): no statistically significant effect | Level of mRNA, estimated by qPCR: tgfb1 (tgfb1 mRNA; 10 μM A): 1.01 ± 0.04 fold-change | Level of mRNA, estimated by qPCR: tgfb1 (tgfb1 mRNA; 33 μM A): 0.93 ± 0.11 fold-change | Level of mRNA, estimated by qPCR: tgfb1 (tgfb1 mRNA; 100 μM A): 1.06 ± 0.08 fold-change | effect on the mRNA levels of any of the three isoforms of TGF-beta (tgfb1 mRNA; any concentration tested (up to 100 μM)): no statistically significant effect

CC/C(=C(\c1ccccc1)c1ccc(OCCN(C)C)cc1)c1ccccc1 [Tamoxifen]
critical micelle concentration [1]: approximately 50 μM | Fibrin(ogen) staining (fibrin(ogen); apoE mice, 12 weeks, TMX 1 mg/kg/day, Aspirin 30 mg/kg/day, mean ± SD): 151 ± 7 AU | increase of fibrin(ogen) deposition into the vessel wall (fibrin(ogen); apoE mice, Tamoxifen 1 mg/kg/day, vs control): 23% | effect on total TGF-beta1 protein levels in conditioned medium (TGF-beta1 protein): no statistically significant effect | Level of mRNA, estimated by qPCR: tgfb1 (tgfb1 mRNA; 3.3 μM T, normalised to TBP, vs vehicle): 0.95 ± 0.16 fold-change | Level of mRNA, estimated by qPCR: tgfb1 (tgfb1 mRNA; 10 μM T): 1.27 ± 0.09 fold-change | Level of mRNA, estimated by qPCR: tgfb1 (tgfb1 mRNA; 33 μM T, listed as T): 1.41 ± 0.08 fold-change | Level of mRNA, estimated by qPCR: tgfb1 (tgfb1 mRNA; 33 μM T, listed as TMX): approximately 1.4 fold-change | doses that significantly increased tgfb1 mRNA (tgfb1 mRNA): ≥ 10 µM
